Laboratory results taken from patent publication US20250154126A1, “CRYSTALLINE FORM OF SULFUR-CONTAINING ISOINDOLINE DERIVATIVE” (JIANGSU HENGRUI PHARMACEUTICALS CO., LTD., priority 2022, published 2025).
Each block holds one compound with its values, some of them ahead of it.

Key:
Type in all cases: physicochemical
[1] = Hygroscopicity study of crystal forms (dynamic vapour sorption, 25° C.); conditions: for Crystal form after hygroscopicity test: two cycles
Description: According to the “9103 Guideline for Hygroscopicity for Pharmaceuticals” in Part IV of the 2015 edition of the Chinese Pharmacopoeia, descriptions of hygroscopic characteristics and definitions of hygroscopic weight gain are as follows; • Deliquescent: Absorbs sufficient moisture to form a liquid; • Extremely hygroscopic: Hygroscopic weight gain is no less than 15%; • Hygroscopic: Hygroscopic weight gain is less than 15% but no less than 2%; • Slightly hygroscopic: Hygroscopic weight gain is less than 2% but no less than 0.2%; • Non-hygroscopic or nearly non-hygroscopic: Hygroscopic weight gain is less than 0.2%.
Compound of Formula (I) (Oct. 15, 2021, Nanjing) 03881 Using the Surface Measurement Systems advantage 2, at a temperature of 25° C., and starting at a humidity of 50%, the humidity range was examined from […] to 95%, with increments of 10%. The criterion for evaluation was that the mass change dM/dT at each gradient was less than 0.002%, TMAX was 360 min, and the process was cycled twice.

[2] = Long-term/accelerated stability of crystal forms (25° C. 60% RH and 40° C. 75% RH); conditions: for physical and chemical stability, long-term accelerated conditions: 25° C. 60% RH and 40° C. 75% RH, six months
Description: The crystal forms D, E, Q, and U of the compound of formula (I) were respectively placed under conditions of 25° C. with 60% RH and 40° C. with 75% RH to evaluate their stability.

[3] = Influencing factor stability of crystal forms (light, high temperature, high humidity, 30 days); conditions: for change in purity under 60° C. and light: 60° C. and light (4500 Lux); for change in purity under 60° C. and light / physicochemical stability under high humidity: open; for physicochemical stability under high humidity: high humidity conditions of 75% and 92.5%; for crystal form after influencing factor experiments: light, high temperature, high humidity
Description: Each crystal form was spread out in an open exposure setup, and the stability of the samples under conditions of light (4500 Lux), high temperature (40° C., 60° C.), and high humidity (RH 75 RH 92.5%) was examined separately. The sampling inspection period was 30 days.

[4] = 92.5% RH, 9 days, open exposure
[5] = 92.5% RH, 15 days, open exposure
[6] = 92.5% RH, 30 days, open exposure
[7] = light 4500 Lux, 9 days, open exposure
[8] = light 4500 Lux, 15 days, open exposure
[9] = light 4500 Lux, 30 days, open exposure

Hygroscopic weight change 0.0% RH-95.0% RH [1]: 2.24%
Hygroscopic weight change 20% RH-80% RH [1]: 1.26%
Hygroscopicity class (20% RH-80% RH) [1]: (slightly hygroscopic)
Crystal form after hygroscopicity test [1]: Untransformed
physical and chemical stability, long-term accelerated conditions [2]: good physical and chemical stability
Purity % 1 month ([2]; 25° C., 60% RH): 97.8%
Purity % 2 months ([2]; 25° C., 60% RH): 97.8%
Purity % 3 months ([2]; 25° C., 60% RH): 97.8%
Purity % 1 month ([2]; 40° C., 75% RH): 97.8%
Purity % 2 months ([2]; 40° C., 75% RH): 97.8%
Purity % 3 months ([2]; 40° C., 75% RH): 97.7%
Purity % 6 months ([2]; 40° C., 75% RH): 97.6%
Purity % Onset [2]: 97.9%
Color and character ([3]; 40° C., 9 days, open exposure): White solid
Purity % ([3]; 40° C., 9 days, open exposure, listed as Free crystal form D): 97.3%
Color and character ([3]; 40° C., 15 days, open exposure): White solid
Purity % ([3]; 40° C., 15 days, open exposure, listed as Free crystal form D): 96.7%
Color and character ([3]; 40° C., 30 days, open exposure): White solid
Purity % ([3]; 40° C., 30 days, open exposure, listed as Free crystal form D): 95.8%
change in purity under 60° C. and light ([3]; 30 days): slight decrease in purity
Color and character ([3]; 60° C., 9 days, open exposure): White solid
Purity % ([3]; 60° C., 9 days, open exposure, listed as Free crystal form D): 96.6%
Color and character ([3]; 60° C., 15 days, open exposure): White solid
Purity % ([3]; 60° C., 15 days, open exposure, listed as Free crystal form D): 95.8%
Color and character ([3]; 60° C., 30 days, open exposure): White solid
Purity % ([3]; 60° C., 30 days, open exposure, listed as Free crystal form D): 93.9%
Color and character ([3]; 75% RH, 9 days, open exposure): White solid
Purity % ([3]; 75% RH, 9 days, open exposure, listed as Free crystal form D): 97.8%
Color and character ([3]; 75% RH, 15 days, open exposure): White solid
Purity % ([3]; 75% RH, 15 days, open exposure, listed as Free crystal form D): 97.7%
Color and character ([3]; 75% RH, 30 days, open exposure): White solid
Purity % ([3]; 75% RH, 30 days, open exposure, listed as Free crystal form D): 97.9%
Color and character [3, 4]: White solid
Purity % ([3]; 92.5% RH, 9 days, open exposure, listed as Free crystal form D): 97.8%
Color and character [3, 5]: White solid
Purity % ([3]; 92.5% RH, 15 days, open exposure, listed as Free crystal form D): 97.9%
Color and character [3, 6]: White solid
Purity % ([3]; 92.5% RH, 30 days, open exposure, listed as Free crystal form D): 97.8%
Color and character ([3]; Onset, 0 days): White solid
Purity % ([3]; Onset, 0 days, listed as Free crystal form D): 97.9%
physicochemical stability under high humidity ([3]; 30 days): good physicochemical stability
Color and character [3, 7]: White solid
Purity % ([3]; light 4500 Lux, 9 days, open exposure, listed as Free crystal form D): 97.3%
Color and character [3, 8]: White solid
Purity % ([3]; light 4500 Lux, 15 days, open exposure, listed as Free crystal form D): 96.8%
Color and character [3, 9]: White solid
Purity % ([3]; light 4500 Lux, 30 days, open exposure, listed as Free crystal form D): 95.4%
crystal form after influencing factor experiments ([3]; 30 days): remain unchanged
SMILES: N#Cc1ccc(N2CCC(Sc3ccc(COc4cccc5c4CN([C@H]4CCC(=O)NC4=O)C5=O)cn3)CC2)c(F)c1 [Crystal form D, (S)-4-(4-((5-(((2-(2,6-dioxopiperidin-3-yl)-1-oxoisoindolin-4-yl)oxy)methyl)pyridin-2-yl)thio)piperidin-1-yl)-3-fluorobenzonitrile]

Hygroscopic weight change 0.0% RH-95.0% RH [1]: 2.24%
Hygroscopic weight change 20% RH-80% RH [1]: 0.84%
Hygroscopicity class (20% RH-80% RH) [1]: (slightly hygroscopic)
Crystal form after hygroscopicity test [1]: Untransformed
physical and chemical stability, long-term accelerated conditions [2]: good physical and chemical stability
Purity % 1 month ([2]; 25° C., 60% RH): 97.9%
Purity % 2 months ([2]; 25° C., 60% RH): 97.8%
Purity % 3 months ([2]; 25° C., 60% RH): 97.8%
Purity % 1 month ([2]; 40° C., 75% RH): 97.8%
Purity % 2 months ([2]; 40° C., 75% RH): 97.8%
Purity % 3 months ([2]; 40° C., 75% RH): 97.8%
Purity % 6 months ([2]; 40° C., 75% RH): 97.4%
Purity % Onset [2]: 97.9%
Color and character ([3]; 40° C., 9 days, open exposure): White solid
Purity % ([3]; 40° C., 9 days, open exposure, listed as Free crystal form E): 97.4%
Color and character ([3]; 40° C., 15 days, open exposure): White solid
Purity % ([3]; 40° C., 15 days, open exposure, listed as Free crystal form E): 97.0%
Color and character ([3]; 40° C., 30 days, open exposure): White solid
Purity % ([3]; 40° C., 30 days, open exposure, listed as Free crystal form E): 96.4%
change in purity under 60° C. and light ([3]; 30 days): slight decrease in purity
Color and character ([3]; 60° C., 9 days, open exposure): White solid
Purity % ([3]; 60° C., 9 days, open exposure, listed as Free crystal form E): 96.7%
Color and character ([3]; 60° C., 15 days, open exposure): White solid
Purity % ([3]; 60° C., 15 days, open exposure, listed as Free crystal form E): 95.9%
Color and character ([3]; 60° C., 30 days, open exposure): White solid
Purity % ([3]; 60° C., 30 days, open exposure, listed as Free crystal form E): 94.6%
Color and character ([3]; 75% RH, 9 days, open exposure): White solid
Purity % ([3]; 75% RH, 9 days, open exposure, listed as Free crystal form E): 97.9%
Color and character ([3]; 75% RH, 15 days, open exposure): White solid
Purity % ([3]; 75% RH, 15 days, open exposure, listed as Free crystal form E): 97.9%
Color and character ([3]; 75% RH, 30 days, open exposure): White solid
Purity % ([3]; 75% RH, 30 days, open exposure, listed as Free crystal form E): 97.8%
Color and character [3, 4]: White solid
Purity % ([3]; 92.5% RH, 9 days, open exposure, listed as Free crystal form E): 97.9%
Color and character [3, 5]: White solid
Purity % ([3]; 92.5% RH, 15 days, open exposure, listed as Free crystal form E): 97.8%
Color and character [3, 6]: White solid
Purity % ([3]; 92.5% RH, 30 days, open exposure, listed as Free crystal form E): 97.8%
Color and character ([3]; Onset, 0 days): White solid
Purity % ([3]; Onset, 0 days, listed as Free crystal form E): 97.9%
physicochemical stability under high humidity ([3]; 30 days): good physicochemical stability
Color and character [3, 7]: White solid
Purity % ([3]; light 4500 Lux, 9 days, open exposure, listed as Free crystal form E): 97.7%
Color and character [3, 8]: White solid
Purity % ([3]; light 4500 Lux, 15 days, open exposure, listed as Free crystal form E): 97.4%
Color and character [3, 9]: White solid
Purity % ([3]; light 4500 Lux, 30 days, open exposure, listed as Free crystal form E): 94.9%
crystal form after influencing factor experiments ([3]; 30 days): remain unchanged
SMILES: N#Cc1ccc(N2CCC(Sc3ccc(COc4cccc5c4CN([C@H]4CCC(=O)NC4=O)C5=O)cn3)CC2)c(F)c1 [Crystal form E, (S)-4-(4-((5-(((2-(2,6-dioxopiperidin-3-yl)-1-oxoisoindolin-4-yl)oxy)methyl)pyridin-2-yl)thio)piperidin-1-yl)-3-fluorobenzonitrile]
